{"source": "patent US11179390B2", "about": "“Subcutaneous administration of a P2Y12 receptor antagonist” (Idorsia Pharmaceuticals Ltd, priority 2017, dated 2021)", "key": {"[1]": {"system": "ADP-induced AF488-Fibrinogen binding on mouse platelets", "test": "AF488-Fibrinogen binding assay on whole blood after subcutaneous administration of P2Y12 receptor antagonists", "type": "in vivo, mouse (male Balb/c)", "text": "In-Vivo Measurements of Time Dependent Platelet Inhibition after Subcutaneous Administration of P2Y12 Receptor Antagonists:\nMale Balb/c mice were purchased from Charles River laboratories (Sulzfeld, Germany). All animals were maintained under identical conditions in accordance with the guidelines of the Basel-Landschaft cantonal veterinary office. Husbandry was accomplished in professional animal housing facilities, which provided group-cages, standard diet/water ad libitum, and standard illumination and climate conditions. The technical assistants performed at least one inspection per day. Sufficient time was provided for the animals to be accustomed to the experimental environment. Stress reduction was provided also by enrichment of cages, and providing the possibility to retire to dark housings (taking advantage of the color blindness of albino mice in the red range of the light spectrum). Inside the red housing the animals have the impression of being in the dark, while this housing remains visible to normal human vision.\nCompound 1 hydrochloride, 0.2 mg/kg (respectively 5 mL/kg)\nElinogrel, 30 mg/kg (respectively 5 mL/kg)\nCangrelor, 0.2 mg/kg (respectively 5 mL/kg)\nAfter an acclimatization period of at least 7 days, mice were anesthetized with Isoflurane (2-5%). The animals were then placed on a thermostatically-controlled heating table to maintain body temperature at 36-38° C. A polyurethane catheter (BTPU-027) was inserted into the right jugular vein and advanced into the vena cava for infusion of Heparin and to collect blood. […] Therefore Heparin (4000 U/kg/2.5 mL) was intravenously injected to prevent blood from coagulation.\nTwo minutes after the injection of Heparin, 60 μL of whole blood was collected via the vena cava catheter (baseline). […] 10, 20, 30, 40 and 60 minutes after the subcutaneous injection of the test compounds, 60 μL of whole blood were collected via the vena cava catheter for the fibrinogen binding assay.\n(§1) This assay is particularly well adapted for reliable studies of the effect of P2Y12 antagonists on mouse platelets under in vitro and in vivo conditions. The assay allows to measure ADP-induced AF488-Fibrinogen binding on mouse platelets in only 6 μL whole blood and without washing steps.\n(§2) Next, 10 μL of AF488-Fibrinogen (to give 0.5 mg/mL final concentration) were added followed by incubation of 5 minutes. To induce AF488-Fibrinogen binding, the platelets were then incubated with 10 μL ADP (to give 20 μM final concentration) for 5 minutes. In addition, an incubation with a platelet specific Allophycocyanin (APC) anti-Mouse CD61 (integrin beta 3) antibody (clone 2C9.G2) was performed for 10 minutes. The platelets were then fixed by addition of 34 μL cold paraformaldehyde solution (to give 0.1% final concentration) and stored at 4° C. for about 20 minutes. The samples were finally diluted with 1.8 mL cold PBS and put on hold at 4° C. for at least 2 hours, time necessary for gently red blood cell lysis, before measuring by flow cytometry.\nFlow cytometry was performed using a FACSCanto II instrument (BD Bioscience). The setting of fluorescence compensation was not required due to the use of two different lasers.\nPlatelets were first detected using the platelet specific fluorescence signal of APC-CD61 (APC-settings for fluorescence emission peak at 660 nm). The platelet population was then gated using forward-scatter (FSC) and side-scatter (SSC) and their FITC-labeled Fibrinogen signal (FITC-settings for fluorescence emission peak at 525 nm) was quantitated as Mean Fluorescence Intensity (MFI) of 5000 platelets. For each sample, the MFI from corresponding nonspecific sample was subtracted."}, "[2]": {"system": "ADP-induced AF488-Fibrinogen binding on platelets", "test": "In vitro inhibition of ADP-induced AF488-Fibrinogen binding (nonspecific signal control)", "type": "cell-based", "conditions": "Mus musculus, Platelet, 0.25 h; 2 μM final concentration in diluted blood, 15 minutes at RT, 20 μM ADP; prior experiments", "method": "as §1\nas §2, with “The blood was first incubated with 4 μL vehicle or 4 μL Compound 1 hydrochloride (to give 2 μM final concentration in diluted blood) for 15 minutes at RT. This concentration of Compound 1 hydrochloride was determined in prior experiments to inhibit 100% of ADP-induced AF488-Fibrinogen binding on platelets and represents the nonspecific signal. Next,” for “Next,”"}}, "note": "Several values for one entry are separate records, joined by “and”; a condition that tells them apart may be missing. Equal values may be shown once. Where a name gives a salt, the structure may show the parent alone.", "data": [{"smiles": "CSCCNc1nc(SCCC(F)(F)F)nc2c1ncn2[C@@H]1O[C@H](COP(=O)(O)OP(=O)(O)C(Cl)(Cl)P(=O)(O)O)[C@@H](O)[C@H]1O", "note": "[Cangrelor]", "values": [{"measurement": "Mean Fluorescence Intensities of AF488-Fibrinogen binding to platelets", "setting": "[1]; 0.2 mg/kg s.c., 10 min after injection", "result": "1596 MFI and 1628 MFI and 2550 MFI"}, {"measurement": "Mean Fluorescence Intensities of AF488-Fibrinogen binding to platelets", "setting": "[1]; 0.2 mg/kg s.c., 20 min after injection", "result": "713 MFI and 1364 MFI and 1012 MFI"}, {"measurement": "Mean Fluorescence Intensities of AF488-Fibrinogen binding to platelets", "setting": "[1]; 0.2 mg/kg s.c., 40 min after injection", "result": "765 MFI and 732 MFI and 921 MFI"}, {"measurement": "Mean Fluorescence Intensities of AF488-Fibrinogen binding to platelets", "setting": "[1]; 0.2 mg/kg s.c., 60 min after injection", "result": "1048 MFI and 682 MFI and 961 MFI"}, {"measurement": "Mean Fluorescence Intensities of AF488-Fibrinogen binding to platelets", "setting": "[1]; 0.2 mg/kg s.c., time 0 min (baseline, before injection)", "result": "6200 MFI and 7453 MFI and 5476 MFI"}]}, {"smiles": "CCCCOC(=O)N1CCN(C(=O)[C@H](CP(=O)(O)O)NC(=O)c2cc(N3CC[C@H](OC)C3)nc(-c3ccccc3)n2)CC1", "note": "[Compound 1 hydrochloride, ((R)-3-(4-(butoxycarbonyl)piperazin-1-yl)-2-(6-((S)-3-methoxypyrrolidin-1-yl)-2-phenylpyrimidine-4-carboxamido)-3-oxopropyl)phosphonic acid hydrochloride]", "values": [{"measurement": "inhibition at 2 µM", "setting": "[2]", "result": 100, "unit": "%"}]}, {"smiles": "CNc1cc2[nH]c(=O)n(-c3ccc(NC(=O)NS(=O)(=O)c4ccc(Cl)s4)cc3)c(=O)c2cc1F", "note": "[Elinogrel]", "values": [{"measurement": "Mean Fluorescence Intensities of AF488-Fibrinogen binding to platelets", "setting": "[1]; 30 mg/kg s.c., 10 min after injection", "result": "4403 MFI and 4712 MFI and 3842 MFI and 3840 MFI"}, {"measurement": "Mean Fluorescence Intensities of AF488-Fibrinogen binding to platelets", "setting": "[1]; 30 mg/kg s.c., 20 min after injection", "result": "2374 MFI and 3847 MFI and 2177 MFI and 4078 MFI"}, {"measurement": "Mean Fluorescence Intensities of AF488-Fibrinogen binding to platelets", "setting": "[1]; 30 mg/kg s.c., 40 min after injection", "result": "1644 MFI and 1768 MFI and 1652 MFI and 2619 MFI"}, {"measurement": "Mean Fluorescence Intensities of AF488-Fibrinogen binding to platelets", "setting": "[1]; 30 mg/kg s.c., 60 min after injection", "result": "2034 MFI and 1503 MFI and 1515 MFI and 2191 MFI"}, {"measurement": "Mean Fluorescence Intensities of AF488-Fibrinogen binding to platelets", "setting": "[1]; 30 mg/kg s.c., time 0 min (baseline, before injection)", "result": "8124 MFI and 5370 MFI and 7045 MFI and 7097 MFI"}]}]}
